# Reference: patent US12252477B2, “Applications of known and novel cannabinoids” (Bessor Pharma, LLC, priority 2018, dated 2025)
# Biological target: T1, TRPV1 channels (Homo sapiens, UniProt Q8NER1)
# T1 construct: expressed in transfected cells; host or cells: HEK TRex (HEK 293 T-REx) cells stably carrying a tetracycline-inducible TRPV1 transgene
# Assay: Calcium assay (Fluo-4) in HEK-TRPV1 cells, dose response comparison
# Assay type: cell-based
# Settings: Fluo-4 loaded, 1 mM external calcium chloride, 0-20 seconds baseline, compound added at 20 seconds, FIGS. 1A-1D
# Procedure: Molecular Pharmacology, 2016, volume 90, pages 300-308) HEK 293 cells with TRPV1 channels have been used as model systems (P. Geppetti and M. Trevisani, Activation and sensitisation of the vanilloid receptor: role in gastrointestinal inflammation and function, British Journal of Pharmacology, 2004, volume 141, pages 1313-1320);
# HEK TRexTRPV1 cultured in DMEM, 10% Fetal Bovine Serum, 2 mM L-glutamine, 10 microgramg/ml Blasticidin (Calbiochem, San Diego Calif.), […] Zeocin (InvivoGen, San Diego Calif.), followed by inducing indicated transgene expression using 1 microgram/ml Tetracycline for 16-24 hrs. Comparisons made to untransfected HEK cells or HEKTRexTRPV1 with or without induction.
# Cells washed and incubated with 0.2 micromolar Fluo-4 [54] for 30 minutes at 37° C. in a standard modified Ringer's solution of the following composition (in mM): NaCl 145, KCl 2.8, CsCl 10, CaCl2 10, MgCl2 2, glucose 10, Hepes. NaOH 10, pH 7.4, 330 mOsm. Cells transferred to 96-well plates at 50,000 cells/well and stimulated as indicated. Calcium signals acquired using a Flexstation 3 (Molecular Devices, Sunnydale, USA). Data are analyzed according to the methods in 1. Diaz-Franulic, J. Caceres-Molina, R. V. Sepulveda, F. Gonzalez-Nilo, R. Latorre, Structure-Driven Pharmacology of Transient Receptor Potential Channel Vanilloid 1, Molecular Pharmacology, 2016, volume 90, pages 300-8. […]
# T1 sequence (Q8NER1 whole entry): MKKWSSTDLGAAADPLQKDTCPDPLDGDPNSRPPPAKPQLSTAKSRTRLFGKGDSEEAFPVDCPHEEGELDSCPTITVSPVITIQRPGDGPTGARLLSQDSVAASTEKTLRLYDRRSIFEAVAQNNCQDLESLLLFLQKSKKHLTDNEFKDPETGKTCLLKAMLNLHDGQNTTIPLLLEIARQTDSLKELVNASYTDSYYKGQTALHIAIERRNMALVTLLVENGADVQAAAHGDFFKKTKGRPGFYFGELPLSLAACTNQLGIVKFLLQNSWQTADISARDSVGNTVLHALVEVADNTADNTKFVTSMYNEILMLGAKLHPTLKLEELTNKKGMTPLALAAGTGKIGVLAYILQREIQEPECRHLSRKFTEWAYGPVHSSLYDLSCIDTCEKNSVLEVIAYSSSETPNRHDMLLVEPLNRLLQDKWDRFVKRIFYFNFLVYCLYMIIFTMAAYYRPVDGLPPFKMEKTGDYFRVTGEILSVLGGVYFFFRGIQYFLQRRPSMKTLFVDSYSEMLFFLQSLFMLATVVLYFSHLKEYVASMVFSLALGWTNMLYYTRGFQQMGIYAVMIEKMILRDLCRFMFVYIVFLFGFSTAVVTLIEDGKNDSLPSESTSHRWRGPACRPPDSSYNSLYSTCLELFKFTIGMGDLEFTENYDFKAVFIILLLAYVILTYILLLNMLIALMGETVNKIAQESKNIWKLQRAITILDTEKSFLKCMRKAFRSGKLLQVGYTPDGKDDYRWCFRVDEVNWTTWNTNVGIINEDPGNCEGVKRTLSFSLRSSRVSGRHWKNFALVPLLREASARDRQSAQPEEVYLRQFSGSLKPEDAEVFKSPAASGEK
smiles,measurement,value
"C=C(C)[C@@H]1CCC(C)=C[C@H]1c1c(O)cc(CCCCC)cc1O [cannabidiol (11, CBD), Cannabidiol]","“biological finger print” and dose response on TRPV 1 channels (calcium signal), synthesized versus reference standard cannabidiol",same “biological finger print” and dose response
